The test system of the experiment is invasive cells (PC-3 and DU-154). Put plainly: three-dimensional in vitro invasion assay (CiGiP, paper-Matrigel layers, calcein stain). It counts as cell-based. The following applies: PC-3 and DU-154 prostate cancer cells in stacked paper-Matrigel layers; 1-5 days culture of stacked layers; inhibitor of actin-based motility present. As for the experimental part:
The following invasive potential of the cell lines were assessed using the 3D in vitro assay as disclosed herein: Breast cancer cells; triple negative highly invasive cell line MDA-MB-231. Prostate cancer cells: highly invasive PC-3 and DU-154 isolate from bone and brain metastases, weakly invasive LNCaP and CWR-22 lines. Control cells included normal prostate epithelial cells (RWPE-1) and fibroblasts (HIN 3T3) as negative controls.
Permeation of the suspension of cells in Matrigel into paper yielded thin (200 μm) layers of Matrigel with cells trapped within [Derda et al, PNAS 2009; Derda et al, PLoS submitted]. […] The inventors also assessed other combinations of different numbers of seed-substrates and different numbers of receiving-substrates.
After additional 1-5 days of culture of the 3-D assay of stacked layers, the layers were separated by peeling apart and the amount of cells (e.g., the number, density or quantity) of cells in one or more receiving layer was measured, and optionally the amount of the amount of cells (e.g., the number, density or quantity) of cells in the seed-substrate layer. […]
To measure the quantity of cells in each layer, the layers were incubated in solution of calcein which stains viable cells and the layers were imaged using fluorescent scanner at 100 micron resolution. […]

Regarding `C=C1[C@@H](C)[C@H]2[C@H](Cc3ccccc3)NC(=O)[C@]23[C@H](OC(C)=O)/C=C/[C@@](C)(O)C(=O)[C@@H](C)C/C=C/[C@H]3[C@@H]1O` [cytoclasin D], the “invasion of the upper "receiver-substrate" layer by invasive cells” value is listed as “blocked”.

Values taken from patent publication US20140206559A1, “ASSAY FOR […] OF TUMOR CELLS” (PRESIDENT AND FELLOWS OF HARVARD COLLEGE, priority 2011, published 2014).
